Data published in patent publication US20040121947A1, “Compounds which inhibit beta-secretase activity and methods of use thereof” (Oklahoma Medical Research Foundation, priority 2000, published 2004).
Like-named read-outs stand apart in the source and are kept apart here.

Target: T1, memapsin 2 (Homo sapiens, UniProt P56817)
T1 construct: pET-11 vector-derived residues 1-15 of promemapsin 2-T1 (N, cleaved yes); made in house; host or cells: E. coli
Assay: Inhibition of memapsin 2 proteolytic activity, fluorogenic substrate FS-2
Format: biochemical
Conditions: for Vi/Vo: ratio of initial cleavage velocities of FS-2 with/without compound, enzyme and inhibitor concentrations equal (e.g., about 80 nM, 100 nM)
Experimental: Ki is the inhibition equilibrium constant which indicates the ability of compounds to inhibit the β-secretase activity of memapsin 2 and memapsin 1. […] The K1 value is independent of the substrate, and converted from Ki apparent.
The Vi/Vo values depicted in Table 1 were determined at conditions under which the enzyme and inhibitor concentrations were equal (e.g., about 80 nM, 100 nM).
The relationship of Ki (independent of substrate concentration) to Kiapp is a function of substrate concentration in the assay and the Km for cleavage of the substrate by either memapsin 1 or memapsin 2 by the relationship:
The spontaneously activated memapsin 2 was employed in assays to assess the inhibition of memapsin 2 relative to memapsin 1 by compounds of the invention and in some crystallization studies.
An aliquot of the inhibitor of known concentration in DMSO was diluted into 1.8 ml 0.1 M NaOAc, pH 4.0. DMSO and added to a final concentration of 10% (v/v), and memapsin 2 (final concentration of 80 nM), followed by a 20 minute equilibration at 37° C. Compounds were evaluated for the ability to inhibit memapsin 1 and memapsin 2 at concentrations between about 10 nM and about 10 μm of inhibitor.

[1] = memapsin 2, independent of substrate, converted from Ki apparent, read-out: Ki
[2] = memapsin 2, apparent Ki in presence of substrate FS-2
[3] = memapsin 2, independent of substrate, converted from Ki apparent
[4] = memapsin 2, apparent Ki in presence of substrate FS-2, read-out: Ki app

T1 sequence (P56817 41-454 limits assumed): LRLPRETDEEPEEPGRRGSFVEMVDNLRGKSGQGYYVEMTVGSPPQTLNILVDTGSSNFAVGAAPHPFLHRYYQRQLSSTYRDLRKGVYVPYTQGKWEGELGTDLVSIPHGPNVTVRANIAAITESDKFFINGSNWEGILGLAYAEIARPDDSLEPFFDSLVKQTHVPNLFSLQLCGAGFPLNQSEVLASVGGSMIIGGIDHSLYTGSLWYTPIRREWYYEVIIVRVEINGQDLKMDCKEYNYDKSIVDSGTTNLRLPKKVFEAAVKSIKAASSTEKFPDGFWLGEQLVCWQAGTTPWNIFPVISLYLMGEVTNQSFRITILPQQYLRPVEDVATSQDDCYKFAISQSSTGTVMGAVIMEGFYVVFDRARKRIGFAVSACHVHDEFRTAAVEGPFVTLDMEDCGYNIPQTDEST

| Ki [1] [nM] | Ki [4] [nM] | Vi/Vo | Compound | further results |
| --- | --- | --- | --- | --- |
| 91200 |  |  | CCC(C)[C@H](NC(=O)[C@H](C)C[C@H](O)[C@H](CC(C)C)NC(=O)[C@H](CCO)NC(=O)c1cnc2ccccc2c1)C(=O)N[C@H]1c2ccccc2C[C@H]1O (stereo partly drawn) [MMI-050] |  |
|  |  |  | CSCC[C@H](NC(=O)[C@@H](NC(=O)OC(C)(C)C)C(C)C)C(=O)N[C@@H](CC(C)C)[C@@H](O)C[C@@H](C)C(=O)N[C@H]1CCCC[C@@H]1O [MMI-051] | Ki app [2]: N.I.; Ki [3]: N.I. |
|  |  |  | CSCC[C@H](NC(=O)[C@@H](NC(=O)OC(C)(C)C)C(C)C)C(=O)N[C@@H](CC(C)C)[C@@H](O)C[C@@H](C)C(=O)N[C@@H]1c2ccccc2C[C@@H]1O [MMI-053] | Ki app [2]: N.I.; Ki [3]: N.I. |
| 293000 |  |  | CC(C)C[C@H](NC(=O)[C@H](CCS(C)(=O)=O)NC(=O)[C@@H](NC(=O)OC(C)(C)C)C(C)C)[C@@H](O)C[C@@H](C)C(=O)N[C@@H]1c2ccccc2C[C@@H]1O [MMI-054] |  |
| 394000 |  |  | CSCC[C@H](NC(=O)[C@@H](NC(=O)OC(C)(C)C)C(C)C)C(=O)N[C@@H](CC(C)C)[C@@H](O)C[C@@H](C)C(=O)N[C@H]1CCCC[C@@H]1O [MMI-055] |  |
| 45800 | 73300 |  | CSCC[C@H](NC(=O)[C@@H](NC(=O)OC(C)(C)C)C(C)C)C(=O)N[C@@H](CC(C)C)[C@@H](O)C[C@@H](C)C(=O)N[C@@H]1CCCC[C@@H]1O [MMI-057] |  |
| 41400 | 66300 |  | CSCC[C@H](NC(=O)[C@@H](NC(=O)OC(C)(C)C)C(C)C)C(=O)N[C@@H](CC(C)C)[C@@H](O)C[C@@H](C)C(=O)N[C@@H]1CCCC[C@@H]1O [MMI-059] |  |
| 9.66e+06 |  |  | CSCC[C@H](NC(=O)[C@@H](NC(=O)OC(C)(C)C)C(C)C)C(=O)N[C@@H](CC(C)C)[C@@H](O)CN(C)C(=O)[C@H](NC(=O)OCc1ccccc1)C(C)C [MMI-061] |  |
|  |  |  | CC(C)C[C@H](NC(=O)[C@@H](NC(=O)OC(C)(C)C)C(C)C)[C@@H](O)CN(C)C(=O)[C@H](NC(=O)OCc1ccccc1)C(C)C [MMI-062] | Ki app [2]: N.I.; Ki [3]: N.I. |
| 42.9 | 68.7 |  | CSCC[C@H](NC(=O)[C@@H](NC(=O)OC(C)(C)C)C(C)C)C(=O)N[C@@H](CC(C)C)[C@@H](O)C[C@@H](C)C(=O)N[C@@H](CC(C)C)C(=O)NCCc1c[nH]c2ccccc12 [MMI-065] |  |
| 3.06 | 4.9 |  | CSCC[C@H](NC(=O)[C@H](CC(C)C)NC(=O)OC(C)(C)C)C(=O)N[C@@H](CC(C)C)[C@@H](O)C[C@@H](C)C(=O)N[C@H](C(=O)NCc1ccccc1)C(C)C [MMI-070] |  |
| 1.18 | 1.9 |  | CC(C)C[C@H](NC(=O)OC(C)(C)C)C(=O)N[C@@H](CCS(C)(=O)=O)C(=O)N[C@@H](CC(C)C)[C@@H](O)C[C@@H](C)C(=O)N[C@H](C(=O)NCc1ccccc1)C(C)C [MMI-071] |  |
|  |  | 0.9 | CSCC[C@H](NC(=O)[C@@H](NC(=O)OC(C)(C)C)C(C)C)C(=O)N[C@@H](CC(C)C)[C@@H](O)C[C@@H](C)C(=O)N[C@@H](C(=O)NCc1ccccc1)[C@@H](C)O [MMI-072] |  |
|  |  | 0.87 | CSCCC(NC(=O)[C@@H](NC(=O)OC(C)(C)C)C(C)C)C(=O)N[C@@H](CC(C)C)[C@@H](O)C[C@@H](C)C(=O)N[C@H](C(=O)NCc1ccccc1)[C@H](C)O (stereo partly drawn) [MMI-081] |  |
|  |  | 0.72 | CC(C)C[C@H](NC(=O)C(CCS(C)(=O)=O)NC(=O)[C@@H](NC(=O)OC(C)(C)C)C(C)C)[C@@H](O)C[C@@H](C)C(=O)N[C@H](C(=O)NCc1ccccc1)[C@H](C)O (stereo partly drawn) [MMI-082] |  |
| 565 | 905 |  | CSCC[C@H](NC(=O)[C@@H](NC(=O)OC(C)(C)C)C(C)C)C(=O)N[C@@H](CC(C)C)[C@@H](O)C[C@@H](C)C(=O)N[C@H](C(=O)NCc1cccnc1)C(C)C [MMI-087] |  |
| 646 | 1030 |  | CC(C)C[C@H](NC(=O)[C@H](CCS(C)(=O)=O)NC(=O)[C@@H](NC(=O)OC(C)(C)C)C(C)C)[C@@H](O)C[C@@H](C)C(=O)N[C@H](C(=O)NCc1cccnc1)C(C)C [MMI-088] |  |
| 197 | 315 |  | CSCC[C@H](NC(=O)[C@H](CC(C)C)NS(=O)(=O)c1ccc(C)cc1)C(=O)N[C@@H](CC(C)C)[C@@H](O)C[C@@H](C)C(=O)N[C@H](C(=O)NCc1ccccc1)C(C)C [MMI-089] |  |
| 194 | 311 |  | Cc1ccc(S(=O)(=O)N[C@@H](CC(C)C)C(=O)N[C@@H](CCS(C)(=O)=O)C(=O)N[C@@H](CC(C)C)[C@@H](O)C[C@@H](C)C(=O)N[C@H](C(=O)NCc2ccccc2)C(C)C)cc1 [MMI-090] |  |

| Ki [1] [nM] | Ki [4] [nM] | Vi/Vo | Compound | further results |
| --- | --- | --- | --- | --- |
| 7.45 | 11.9 |  | CSCC[C@H](NC(=O)[C@H](CC(C)C)NS(C)(=O)=O)C(=O)N[C@@H](CC(C)C)[C@@H](O)C[C@@H](C)C(=O)N[C@H](C(=O)NCc1ccccc1)C(C)C [MMI-093] |  |
| 40.1 | 64.1 |  | CSCC[C@H](NC(=O)[C@H](CC(C)C)NC(C)=O)C(=O)N[C@@H](CC(C)C)[C@@H](O)C[C@@H](C)C(=O)N[C@H](C(=O)NCc1ccccc1)C(C)C [MMI-094] |  |
| 51.7 | 82.8 |  | CSCCC(NC(=O)[C@H](CC(C)C)NC(=O)OC(C)(C)C)C(=O)N[C@@H](CC(C)C)[C@@H](O)C[C@@H](C)C(=O)N[C@@H](CC(C)C)C(=O)NCc1ccccc1 (stereo partly drawn) [MMI-097] |  |
| 182 | 290 |  | CC[C@H](C)[C@H](NC(=O)[C@H](C)C[C@H](O)[C@H](CC(C)C)NC(=O)C(CCSC)NC(=O)[C@H](CC(C)C)NC(=O)OC(C)(C)C)C(=O)NCc1ccccc1 (stereo partly drawn) [MMI-099] |  |
| 520 | 831 |  | CSCC[C@@H](NC(=O)[C@H](CC(C)C)NC(=O)OC(C)(C)C)C(=O)N[C@@H](CC(C)C)[C@@H](O)C[C@@H](C)C(=O)N[C@H](C(=O)NCc1ccccc1)C(C)C [MMI-104] |  |
| 125 | 201 |  | CC(C)C[C@H](NC(=O)OC(C)(C)C)C(=O)N[C@H](CCS(C)(=O)=O)C(=O)N[C@@H](CC(C)C)[C@@H](O)C[C@@H](C)C(=O)N[C@H](C(=O)NCc1ccccc1)C(C)C [MMI-105] |  |
| 62.1 | 99.9 |  | CSCC[C@H](NC(=O)[C@H](CC(C)C)NC(=O)OC(C)(C)C)C(=O)N[C@@H](CC(C)C)[C@H](O)C[C@@H](C)C(=O)N[C@H](C(=O)NCc1ccccc1)C(C)C [MMI-113] |  |
| 276 | 441 |  | CSCC[C@@H](COC(=O)N[C@@H](CC(C)C)[C@@H](O)C[C@@H](C)C(=O)N[C@H](C(=O)NCc1ccccc1)C(C)C)NC(=O)[C@@H](NC(=O)OC(C)(C)C)C(C)C [MMI-114] |  |
| 236 | 378 | 1.04 | CSCC[C@H](NC(=O)NCc1ccco1)C(=O)N[C@@H](CC(C)C)[C@@H](O)C[C@@H](C)C(=O)N[C@H](C(=O)NCc1ccccc1)C(C)C [MMI-115] |  |
|  |  | 0.57 | CSCC[C@H](NC(=O)NCc1ccco1)C(=O)N[C@@H](CC(C)C)[C@@H](O)C[C@@H](C)C(=O)N[C@H](C(=O)NCc1ccccc1)C(C)C [MMI-117] |  |
| 194 | 311 | 0.48 | CSCC[C@H](NC(=O)OCc1ccoc1)C(=O)N[C@@H](CC(C)C)[C@@H](O)C[C@@H](C)C(=O)N[C@H](C(=O)NCc1ccccc1)C(C)C [MMI-118] |  |
|  |  | 0.38 | CSCC[C@H](NC(=O)OCc1ccco1)C(=O)N[C@@H](CC(C)C)[C@@H](O)C[C@@H](C)C(=O)N[C@H](C(=O)NCc1ccccc1)C(C)C [MMI-119] |  |
| 1130 | 1800 | 0.66 | CSCC[C@H](NC(=O)c1cccc(O)c1C)C(=O)N[C@@H](CC(C)C)[C@@H](O)C[C@@H](C)C(=O)N[C@@H](CC(C)C)C(=O)NCc1ccccc1 [MMI-120] | Ki (Ki, [I] < 100, memapsin 2, [I] < 100 (nM)): 175 nM |
| 5970 | 9550 |  | CSCC[C@H](NC(=O)[C@@H](NC(=O)c1cccc(O)c1C)C(C)C)C(=O)N[C@@H](CC(C)C)[C@@H](O)C[C@@H](C)C(=O)N[C@@H](CC(C)C)C(=O)NCc1ccccc1 [MMI-121] |  |
|  |  | 1.17 | Cc1c(O)cccc1C(=O)N[C@H](C(=O)N[C@@H](CCS(C)(=O)=O)C(=O)N[C@@H](CC(C)C)[C@@H](O)C[C@@H](C)C(=O)N[C@@H](CC(C)C)C(=O)NCc1ccccc1)C(C)C [MMI-122] |  |
|  |  | 0.61 | Cc1c(O)cccc1C(=O)N[C@@H](CCS(C)(=O)=O)C(=O)N[C@@H](CC(C)C)[C@@H](O)C[C@@H](C)C(=O)N[C@@H](CC(C)C)C(=O)NCc1ccccc1 [MMI-123] |  |
|  |  | 0.93 | CSC[C@H](NC(=O)OCc1ccccn1)C(=O)N[C@@H](CC(C)C)[C@@H](O)C[C@@H](C)C(=O)N[C@@H](CC(C)C)C(=O)NCc1ccccc1 [MMI-124] |  |
|  |  | 0.76 | CSC[C@H](NC(=O)OCc1ccccn1)C(=O)N[C@@H](CC(C)C)[C@@H](O)C[C@@H](C)C(=O)N[C@H](C(=O)NCc1ccccc1)C(C)C [MMI-125] |  |

| Compound | Ki [1] [nM] | Ki [4] [nM] | Vi/Vo | further results |
| --- | --- | --- | --- | --- |
| CSCC[C@H](NC(=O)[C@@H](NC(=O)OC(C)(C)C)C(C)C)C(=O)N[C@@H](CC(C)C)[C@@H](O)C[C@@H](C)C(=O)N[C@@H](CC(C)C)C(=O)NC1Cc2ccccc2C1 [MMI-066] | 13.2 | 21.2 |  |  |
| CC(C)C[C@H](NC(=O)[C@H](C)C[C@H](O)[C@H](CC(C)C)NC(=O)[C@H](CCS(C)(=O)=O)NC(=O)[C@@H](NC(=O)OC(C)(C)C)C(C)C)C(=O)NC1Cc2ccccc2C1 [MMI-067] | 45.9 | 73.5 |  |  |
